# In patent publication US20070167526A1, “Topical mecamylamine formulations for ocular administration and uses thereof” (priority 2005, published 2007):
# Like-named read-outs stand apart in the source and are kept apart here.
# Experiments:
# [1] = system: healthy adults; experiment: Phase 1 ocular and systemic safety of mecamylamine ophthalmic solution (Example 11); assay type: in vivo; conditions: human
# From the text: A phase 1 study entitled: “A Phase 1, Double-Masked, Randomized, 1-Day and 14-Day Escalating Dose Study to Assess the Ocular and Systemic Safety of Mecamylamine Ophthalmic Solution” was initiated in the United States in healthy adults. The safety objectives of this study were to evaluate the ocular and systemic safety of 4 concentrations of mecamylamine ophthalmic solution following 1-day (administered twice) and 14-day (BID) administration. The dose levels of mecamylamine ophthalmic solution evaluated were 0.03%, 0.1%, 0.3%, and 1%. A summary of the composition of the mecamylamine ophthalmic solution and placebo formulation is shown below in Table 7.
# In the 1-day portion of the study, 10 subjects in each group were dosed in a single eye on two occasions with 6 hours between dosing. […] Subjects were evaluated for local (ocular) safety and tolerability based upon evaluation of ocular symptoms, ocular comfort, best-corrected visual acuity, biomicroscopy with fluorescein staining, measurement of intraocular pressure (IOP) by Goldman applanation tonometry, ophthalmoscopy, pupil size, and Schirmer's Test. They were also evaluated for systemic safety based upon assessment of physical examination, 12-lead ECG, vital signs, adverse events, hematology, clinical chemistry, and, urinalysis.
# [2] = Toxicokinetics in the 14-day dog study (Example 13); assay type: in vivo; conditions: for Cmax: both sexes, beagle, dog, in vivo, topical or ocular
# Description: An ophthalmic saline solution formulation containing 3% mecamylamine hydrochloride (HCl) was evaluated for toxicological effects and drug pharmacokinetics in healthy beagle dogs. The drug solution or a matching vehicle control was administered 2, 4 and […] for 14 or 15 consecutive days to both eyes of Beagle dogs.
# Animals were dosed 2, 4 or 6 times a day for 14 consecutive days for males or 15 consecutive days for females. The dose (50 microliters) was administered to the globe of the eye on each dosing occasion. Mortality and clinical observations were evaluated twice daily. Ocular observations were evaluated according to the Draize scoring system twice daily (Draize et al., (1944) J. Pharm. Exp. Ther. 82: 377-390, incorporated by reference herein). All eyes from all animals had ophthalmology examinations using an indirect ophthalmoscope and slit lamp and were evaluated according to McDonald and Shadduck (McDonald & Shadduck (1977) Advances in Modern Toxicology 4: 162 (New York, Wiley), hereby incorporated by reference herein) prior to treatment initiation and 1-2 hours following the final dosing of Groups 1 and 4 on Days 7 and 14. Approximate pupil size was determined for each animal prior to study initiation, at least 30 minutes following the final daily dose on Days 1 and 8 and prior to terminal sacrifice on Days 15/16. Electroretinograms (ERG) were obtained from all animals prior to treatment initiation and on Day 14. Blood samples for evaluation of hematology, coagulation and clinical chemistry parameters were collected prior to treatment initiation and prior to terminal sacrifice on Days 15/16. Selected tissues were harvested at necropsy, selected organs weighed, and selected tissues from all animals were evaluated microscopically.
# [3] = 6-hour ocular pharmacokinetics of 2% Mecamylamine GELRITE solution following topical instillation (Example 10); assay type: in vivo, New Zealand White rabbit; conditions: rabbit; for concentration at 1 h / concentration at 3 h / concentration at 6 h: female, New Zealand White, topical; for Mecamylamine concentration in blood Cell Fraction, Mean / Mecamylamine concentration in blood Plasma, Mean: Pre
# Description: The time of each dose administration was recorded. There was no mortality in the treatment group.
# [4] = Single- and multiple-dose rabbit ocular pharmacokinetics (Example 7); assay type: in vivo, Dutch-belted rabbit
# Description: Dutch-belted male rabbits (Covance, Denver, Pa.) aged 2.5 to 4.5 months and with weights of 1.5 to 2.5 kg were given a 3% solution of mecamylamine hydrochloride (polymer-free solution) by ocular installation either as a single dose or 6 doses (50 microliters per dose), approximately 1.5 hours apart. Serial blood samples (approximately 0.5 mL each) were collected by direct venipuncture from a marginal ear vein into a blood collection tube containing EDTA as anticoagulant from various animal groups at 0.5 hours post dose, 2 hours post dose. A terminal blood sample was obtained from all animals just prior to euthanasia. Animals were euthanized 1, 3 or 6 hours after administration of the drug solution. Ocular tissues (listed in Table 7) were obtained after euthanasia.
# The concentration of mecamylamine in plasma and ocular tissues was measured using an LC MS/MS method as described in Example 6.
# [5] = rabbit, 3% solution, 1 hour to 6 hours after dosing
structure (smiles),measurement,setting,value
"CNC1(C)C2CCC(C2)C1(C)C (stereo not drawn) [mecamylamine, N-2,3,3-tetramethylbicyclo(2.2.1)heptan-2-amine]",best-corrected visual acuity,[1],no change in best corrected visual acuity
same,pupil size,[1],none of the subjects tested showing an increase in pupil diameter
same,accumulation ratios,"[2]; Beagle dog, Day 13 versus Day 1, any group",≤ 1.14
same,Cmax,"[2]; 3 mg/eye/day, Group 2 (2 doses/eye/day, 3 mg/eye/day), read-out: Cmax, mean",49 ng/mL
same,Cmax,"[2]; 3 mg/eye/day, Group 2, read-out: Cmax, highest overall value",185 ng/mL
same,Cmax,"[2]; 6 mg/eye/day, Group 3 (4 doses/eye/day, 6 mg/eye/day), read-out: Cmax, mean",44 ng/mL
same,Cmax,"[2]; 9 mg/eye/day, Group 4 (6 doses/eye/day, 9 mg/eye/day), read-out: Cmax, mean",64 ng/mL
same,concentration at 1 h,"[3]; aqueous humor, 2% in GELRITE, 2 × 50 μL, OS (unilateral) treated eye, 1 hr, read-out: Mecamylamine concentration in Aqueous humor, Mean",2510 ng/g
same,concentration at 1 h,"[3]; aqueous humor, 2% in GELRITE, 2 × 50 μL, OU (bilateral), 1 hr, read-out: Mecamylamine concentration in Aqueous humor, Mean",3910 ng/g
same,concentration at 3 h,"[3]; aqueous humor, 2% in GELRITE, 2 × 50 μL, OU (bilateral), 3 hr, read-out: Mecamylamine concentration in Aqueous humor, Mean",500 ng/g
same,concentration at 6 h,"[3]; aqueous humor, 2% in GELRITE, 2 × 50 μL, OU (bilateral), 6 hr, read-out: Mecamylamine concentration in Aqueous humor, Mean",48.9 ng/g
same,concentration at 1 h,"[3]; aqueous humor, fellow (vehicle) eye of unilaterally dosed animals, 1 hr, read-out: Mecamylamine concentration in Aqueous humor, Mean",9.7 ng/g
same,concentration at 1 h,"[3]; blood cell fraction, group MEC OS 1 hr, Post, read-out: Mecamylamine concentration in blood Cell Fraction, Mean",15 ng/mL
same,concentration at 1 h,"[3]; blood cell fraction, group MEC OU 1 hr, Post, read-out: Mecamylamine concentration in blood Cell Fraction, Mean",33.1 ng/mL
same,concentration at 3 h,"[3]; blood cell fraction, group MEC OU 3 hr, Post, read-out: Mecamylamine concentration in blood Cell Fraction, Mean",7 ng/mL
same,concentration at 6 h,"[3]; blood cell fraction, group MEC OU 6 hr, Post, read-out: Mecamylamine concentration in blood Cell Fraction, Mean",1.2 ng/mL
same,concentration at 1 h,"[3]; choroid (treated eye), 2% in GELRITE, 2 × 50 μL, OS (unilateral) treated eye, 1 hr, read-out: Mecamylamine concentration in Choroid, Mean",~2800 ng/g
same,concentration at 1 h,"[3]; choroid of the fellow (vehicle) eye, fellow (vehicle) eye of unilaterally dosed animals, 1 hr, read-out: Mecamylamine concentration in Choroid, Mean",~700 ng/g
same,concentration at 1 h,"[3]; choroid, 2% in GELRITE, 2 × 50 μL, OU (bilateral), 1 hr, read-out: Mecamylamine concentration in Choroid, Mean",~14000 ng/g
same,concentration at 6 h,"[3]; choroid, 2% in GELRITE, 2 × 50 μL, OU (bilateral), 6 hr, read-out: Mecamylamine concentration in Choroid, Mean",~260 ng/g
same,concentration at 1 h,"[3]; cornea, 2% in GELRITE, 2 × 50 μL, OS (unilateral) treated eye, 1 hr, read-out: Mecamylamine concentration in Cornea, Mean",9600 ng/g
same,concentration at 1 h,"[3]; cornea, 2% in GELRITE, 2 × 50 μL, OU (bilateral), 1 hr, read-out: Mecamylamine concentration in Cornea, Mean",17900 ng/g
same,concentration at 3 h,"[3]; cornea, 2% in GELRITE, 2 × 50 μL, OU (bilateral), 3 hr, read-out: Mecamylamine concentration in Cornea, Mean",3820 ng/g
same,concentration at 6 h,"[3]; cornea, 2% in GELRITE, 2 × 50 μL, OU (bilateral), 6 hr, read-out: Mecamylamine concentration in Cornea, Mean",1230 ng/g
same,concentration at 1 h,"[3]; cornea, fellow (vehicle) eye of unilaterally dosed animals, 1 hr, read-out: Mecamylamine concentration in Cornea, Mean",652 ng/g
same,concentration at 1 h,"[3]; plasma, group MEC OS 1 hr, Post, read-out: Mecamylamine concentration in blood Plasma, Mean",16.3 ng/mL
same,concentration at 1 h,"[3]; plasma, group MEC OU 1 hr, Post, read-out: Mecamylamine concentration in blood Plasma, Mean",37.8 ng/mL
same,concentration at 3 h,"[3]; plasma, group MEC OU 3 hr, Post, read-out: Mecamylamine concentration in blood Plasma, Mean",8.3 ng/mL
same,concentration at 6 h,"[3]; plasma, group MEC OU 6 hr, Post, read-out: Mecamylamine concentration in blood Plasma, Mean",0.3 ng/mL
same,concentration at 1 h,"[3]; retina, 2% in GELRITE, 2 × 50 μL, OS (unilateral) treated eye, 1 hr, read-out: Mecamylamine concentration in Retina, Mean",4160 ng/g
same,concentration at 1 h,"[3]; retina, 2% in GELRITE, 2 × 50 μL, OU (bilateral), 1 hr, read-out: Mecamylamine concentration in Retina, Mean",14700 ng/g
same,concentration at 3 h,"[3]; retina, 2% in GELRITE, 2 × 50 μL, OU (bilateral), 3 hr, read-out: Mecamylamine concentration in Retina, Mean",563 ng/g
same,concentration at 6 h,"[3]; retina, 2% in GELRITE, 2 × 50 μL, OU (bilateral), 6 hr, read-out: Mecamylamine concentration in Retina, Mean",310 ng/g
same,concentration at 1 h,"[3]; retina, fellow (vehicle) eye of unilaterally dosed animals, 1 hr, read-out: Mecamylamine concentration in Retina, Mean",781 ng/g
same,concentration at 1 h,"[3]; vitreous humor, 2% in GELRITE, 2 × 50 μL, OS (unilateral) treated eye, 1 hr, read-out: Mecamylamine concentration in Vitreous humor, Mean",37.8 ng/g
same,concentration at 1 h,"[3]; vitreous humor, 2% in GELRITE, 2 × 50 μL, OU (bilateral), 1 hr, read-out: Mecamylamine concentration in Vitreous humor, Mean",131 ng/g
same,concentration at 3 h,"[3]; vitreous humor, 2% in GELRITE, 2 × 50 μL, OU (bilateral), 3 hr, read-out: Mecamylamine concentration in Vitreous humor, Mean",17.7 ng/g
same,concentration at 6 h,"[3]; vitreous humor, 2% in GELRITE, 2 × 50 μL, OU (bilateral), 6 hr, read-out: Mecamylamine concentration in Vitreous humor, Mean",5.9 ng/g
same,concentration at 1 h,"[3]; vitreous humor, fellow (vehicle) eye of unilaterally dosed animals, 1 hr, read-out: Mecamylamine concentration in Vitreous humor, Mean",10.4 ng/g
same,"Mecamylamine concentration in Choroid, Mean","[3]; 2% in GELRITE, 2 × 50 μL, OS (unilateral) treated eye, 1 hr, listed as MEC",2806.7 ng/g
same,"Mecamylamine concentration in Choroid, Mean","[3]; 2% in GELRITE, 2 × 50 μL, OU (bilateral), 1 hr, listed as MEC",14170.0 ng/g
same,"Mecamylamine concentration in Choroid, Mean","[3]; 2% in GELRITE, 2 × 50 μL, OU (bilateral), 3 hr",~500 ng/g
same,"Mecamylamine concentration in Choroid, Mean","[3]; 2% in GELRITE, 2 × 50 μL, OU (bilateral), 3 hr, listed as MEC",1086.0 ng/g
same,"Mecamylamine concentration in Choroid, Mean","[3]; 2% in GELRITE, 2 × 50 μL, OU (bilateral), 6 hr, listed as MEC",264.5 ng/g
same,Mean levels in the plasma and packed cells,"[3]; 2% in GELRITE, highest one hour after bilateral dosing",5 to 38 ng/mL
same,"Mecamylamine concentration in Choroid, Mean","[3]; fellow (vehicle) eye of unilaterally dosed animals, 1 hr, listed as MEC",705.7 ng/g
same,"Mecamylamine concentration in blood Cell Fraction, Mean",[3]; group MEC OS 1 hr,0.0 ng/mL
same,"Mecamylamine concentration in blood Plasma, Mean",[3]; group MEC OS 1 hr,0.0 ng/mL
same,"Mecamylamine concentration in blood Cell Fraction, Mean",[3]; group MEC OU 1 hr,0.0 ng/mL
same,"Mecamylamine concentration in blood Plasma, Mean",[3]; group MEC OU 1 hr,0.0 ng/mL
same,"Mecamylamine concentration in blood Cell Fraction, Mean",[3]; group MEC OU 3 hr,0.0 ng/mL
same,"Mecamylamine concentration in blood Plasma, Mean",[3]; group MEC OU 3 hr,0.0 ng/mL
same,"Mecamylamine concentration in blood Cell Fraction, Mean",[3]; group MEC OU 6 hr,0.0 ng/mL
same,"Mecamylamine concentration in blood Plasma, Mean",[3]; group MEC OU 6 hr,0.0 ng/mL
same,Kp,"[4]; male, Dutch-belted, retina/choroid and plasma, topical, 50 µL of 3% solution per dose, rabbit, 3% solution, read-out: ratio of mecamylamine concentration in the retina/choroid to the plasma",37 to 147
same,Plasma levels,"[4]; rabbit, 3% solution",≤ 50 ng/mL
same,Mean peak levels in aqueous humor,[4]; [5],310 to 920 ng/mL
same,Mean peak levels in the retina/choroid,[4]; [5],171 to 510 ng/g
same,mecamylamine concentration in the retina/choroid after 6 hourly doses relative to single dose,"[4]; rabbit, 1 hour after 6 hourly doses",five-fold
same,mean maximum concentration of mecamylamine detected in plasma,"[4]; rabbits, topical ocular, single dose and multi-dose studies",less than 70 ng/mL
